Laboratory results published in US10988523B2, “Modified lipidated Relaxin B chain peptides and their therapeutic use” (Sanofi, priority 2018, dated 2021).
*1 amine or outer side, *2 acyl side, *3 side chain or, on linkers, in order; H or OH if unused. Where a SMILES comes first, the peptide text is derived from it. Side-chain parts run from the residue outwards. [ ]: non-standard residue; d: D form. The star is where a group is joined. PEG12 = NCCOCCOCCOCCOCCOCCOCCOCCOCCOCCOCCOCCOCCC(=O)O; γGlu = O=C(O)[C@H](CCC(=O)[*:2])N[*:1]; 1Nal = N[C@@H](Cc1cccc2ccccc12)C(=O)O; Stearoyl = CCCCCCCCCCCCCCCCCC(=O)*; Nle = CCCC[C@H](N)C(=O)O; AEEA = NCCOCCOCC(=O)O; Aib = CC(C)(N)C(=O)O

Biological target: T1, RXFP1 (Homo sapiens, UniProt Q9HBX9)
T1 construct: OVCAR5 cells expressing endogenous RXFP1; endogenous in cells; host or cells: OVCAR5 cells
T1 sequence (Q9HBX9 1-757): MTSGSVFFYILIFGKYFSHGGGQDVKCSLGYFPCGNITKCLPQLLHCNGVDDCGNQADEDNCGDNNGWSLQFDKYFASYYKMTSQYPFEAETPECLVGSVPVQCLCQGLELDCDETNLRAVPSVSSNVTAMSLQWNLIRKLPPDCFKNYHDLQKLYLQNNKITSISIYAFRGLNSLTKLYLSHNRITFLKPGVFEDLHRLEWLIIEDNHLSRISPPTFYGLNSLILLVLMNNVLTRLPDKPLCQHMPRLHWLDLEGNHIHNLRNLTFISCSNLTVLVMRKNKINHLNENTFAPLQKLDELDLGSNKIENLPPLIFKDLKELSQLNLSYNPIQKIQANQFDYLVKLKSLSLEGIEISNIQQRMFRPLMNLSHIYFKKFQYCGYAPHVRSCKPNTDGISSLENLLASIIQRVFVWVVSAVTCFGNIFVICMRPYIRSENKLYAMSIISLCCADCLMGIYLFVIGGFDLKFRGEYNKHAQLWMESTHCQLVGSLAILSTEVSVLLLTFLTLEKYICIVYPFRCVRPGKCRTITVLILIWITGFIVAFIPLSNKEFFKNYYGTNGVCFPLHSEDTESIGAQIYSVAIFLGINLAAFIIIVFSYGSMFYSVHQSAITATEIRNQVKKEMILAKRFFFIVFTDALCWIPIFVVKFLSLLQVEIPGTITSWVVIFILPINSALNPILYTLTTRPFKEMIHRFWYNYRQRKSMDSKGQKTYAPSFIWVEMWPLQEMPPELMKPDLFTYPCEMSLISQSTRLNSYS
Assay: OVCAR5 cAMP assay (HTRF), RXFP1 agonist activity
Type: cell-based
Details: for Emax: OVCAR-5, maximal cAMP relative to H2-relaxin maximum (100%), read-out: EMax, OVCAR 5 cells (cAMP); for EC50: OVCAR5 cells, cAMP HTRF, read-out: EC50 (nM), OVCAR 5 cells (cAMP)
In short: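 cAMP accumulation readout: after 1 mM IBMX for 40 min, endogenous-RXFP1 OVCAR5 cells got rising peptide concentrations without FCS, 30 min, 37° C, then lysis with HTRF cAMP reagents. Nonlinear regression gave EC50; Emax expressed relative to H2-relaxin maximum, same occasion.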

SMILES | Emax [%] | EC50 [nM]
CCCCCCCCCCCCCCCCCC(=O)N[C@@H](CCC(=O)N[C@@H](CCC(=O)N[C@@H](CCC(=O)NCCOCCOCCOCCOCCOCCOCCOCCOCCOCCOCCOCCOCCC(=O)NCCCC[C@H](NC(=O)[C@H](CCCCN)NC(=O)[C@H](CCCCN)NC(=O)[C@H](CCCNC(=N)N)NC(=O)C(C)(C)NC(=O)[C@H](CO)NC(=O)[C@H](Cc1c[nH]c2ccccc12)NC(=O)[C@@H](NC(=O)[C@H](CO)NC(=O)[C@H](CCCC)NC(=O)CNC(=O)[C@H](CCC(=O)O)NC(=O)C(C)(C)NC(=O)C(C)(C)NC(=O)[C@@H](NC(=O)[C@H](CCC(N)=O)NC(=O)[C@H](C)NC(=O)[C@H](CCCNC(=N)N)NC(=O)[C@@H](NC(=O)[C@H](CCCCN)NC(=O)[C@H](CCC(=O)O)NC(=O)[C@H](CCCNC(=N)N)NC(=O)CNC(=O)[C@H](CCC(=O)O)NC(=O)[C@H](CC(C)C)NC(C)=O)C(C)C)[C@@H](C)CC)[C@@H](C)O)C(N)=O)C(=O)O)C(=O)O)C(=O)O [compound 97] (Ac-LEGREKVRAQI[Aib][Aib]EG[Nle]STWS[Aib]RKKK([PEG12-γGlu-γGlu-γGlu-Stearoyl])-NH2) | 98 | 
CCCCCCCCCCCCCCCCCC(=O)NCCOCCOCC(=O)N[C@@H](CCC(=O)N[C@@H](CCC(=O)N[C@@H](CCC(=O)NCCOCCOCC(=O)NCCOCCOCC(=O)NCCCC[C@H](NC(=O)[C@H](CCCCN)NC(=O)[C@H](CCCCN)NC(=O)[C@H](CCCNC(=N)N)NC(=O)C(C)(C)NC(=O)[C@H](CO)NC(=O)[C@H](Cc1c[nH]c2ccccc12)NC(=O)[C@@H](NC(=O)[C@H](CO)NC(=O)[C@H](CCCC)NC(=O)CNC(=O)[C@H](CCC(=O)O)NC(=O)C(C)(C)NC(=O)C(C)(C)NC(=O)[C@@H](NC(=O)[C@H](CCC(N)=O)NC(=O)[C@H](C)NC(=O)[C@H](CCCNC(=N)N)NC(=O)[C@@H](NC(=O)[C@H](CCCCN)NC(=O)[C@H](CCC(=O)O)NC(=O)[C@H](CCCNC(=N)N)NC(=O)CNC(=O)[C@H](CCC(=O)O)NC(=O)[C@H](CC(C)C)NC(C)=O)C(C)C)[C@@H](C)CC)[C@@H](C)O)C(N)=O)C(=O)O)C(=O)O)C(=O)O [compound 98] (Ac-LEGREKVRAQI[Aib][Aib]EG[Nle]STWS[Aib]RKKK([AEEA-AEEA-γGlu-γGlu-γGlu-AEEA-Stearoyl])-NH2) | 99 | 
CCCCCCCCCCCCCCCCCC(=O)N[C@@H](CCC(=O)NCCOCCOCC(=O)N[C@@H](CCC(=O)N[C@@H](CCC(=O)NCCOCCOCC(=O)NCCOCCOCC(=O)NCCCC[C@H](NC(=O)[C@H](CCCCN)NC(=O)[C@H](CCCCN)NC(=O)[C@H](CCCNC(=N)N)NC(=O)C(C)(C)NC(=O)[C@H](CO)NC(=O)[C@H](Cc1c[nH]c2ccccc12)NC(=O)[C@@H](NC(=O)[C@H](CO)NC(=O)[C@H](CCCC)NC(=O)CNC(=O)[C@H](CCC(=O)O)NC(=O)C(C)(C)NC(=O)C(C)(C)NC(=O)[C@@H](NC(=O)[C@H](CCC(N)=O)NC(=O)[C@H](C)NC(=O)[C@H](CCCNC(=N)N)NC(=O)[C@@H](NC(=O)[C@H](CCCCN)NC(=O)[C@H](CCC(=O)O)NC(=O)[C@H](CCCNC(=N)N)NC(=O)CNC(=O)[C@H](CCC(=O)O)NC(=O)[C@H](CC(C)C)NC(C)=O)C(C)C)[C@@H](C)CC)[C@@H](C)O)C(N)=O)C(=O)O)C(=O)O)C(=O)O [compound 99] (Ac-LEGREKVRAQI[Aib][Aib]EG[Nle]STWS[Aib]RKKK([AEEA-AEEA-γGlu-γGlu-AEEA-γGlu-Stearoyl])-NH2) | 87 | 0.01
CCCCCCCCCCCCCCCCCC(=O)N[C@@H](CCC(=O)NCCOCCOCC(=O)N[C@@H](CCC(=O)N[C@@H](CCC(=O)N[C@@H](CCC(=O)NCCOCCOCC(=O)NCCOCCOCC(=O)NCCCC[C@H](NC(=O)[C@H](CCCCN)NC(=O)[C@H](CCCCN)NC(=O)[C@H](CCCNC(=N)N)NC(=O)C(C)(C)NC(=O)[C@H](CO)NC(=O)[C@H](Cc1cccc2ccccc12)NC(=O)[C@@H](NC(=O)[C@H](CO)NC(=O)[C@H](CCCC)NC(=O)CNC(=O)[C@H](CCC(=O)O)NC(=O)C(C)(C)NC(=O)C(C)(C)NC(=O)[C@@H](NC(=O)[C@H](CCCCNC(C)=O)NC(=O)[C@H](C)NC(=O)[C@H](CCCNC(=N)N)NC(=O)[C@@H](NC(=O)[C@H](CCCCN)NC(=O)[C@H](CCC(=O)O)NC(=O)[C@H](CCCNC(=N)N)NC(=O)CNC(=O)[C@H](CCC(=O)O)NC(=O)[C@H](CC(C)C)NC(C)=O)C(C)C)[C@@H](C)CC)[C@@H](C)O)C(N)=O)C(=O)O)C(=O)O)C(=O)O)C(=O)O [compound 103] (Ac-LEGREKVRAK(Ac)I[Aib][Aib]EG[Nle]ST[1Nal]S[Aib]RKKK([AEEA-AEEA-γGlu-γGlu-γGlu-AEEA-γGlu-Stearoyl])-NH2) | 79 | 0.09
CCCCCCCCCCCCCCCCCC(=O)N[C@@H](CCC(=O)NCCOCCOCC(=O)NCCOCCOCC(=O)N[C@@H](CCC(=O)N[C@@H](CCC(=O)NCCCC[C@H](NC(=O)[C@H](CCCCN)NC(=O)[C@H](CCCNC(=N)N)NC(=O)C(C)(C)NC(=O)[C@H](CO)NC(=O)[C@H](Cc1c[nH]c2ccccc12)NC(=O)[C@@H](NC(=O)[C@H](CO)NC(=O)[C@H](CCCC)NC(=O)CNC(=O)[C@H](CCC(=O)O)NC(=O)C(C)(C)NC(=O)C(C)(C)NC(=O)[C@@H](NC(=O)[C@H](CCC(N)=O)NC(=O)[C@H](C)NC(=O)[C@H](CCCNC(=N)N)NC(=O)[C@@H](NC(=O)[C@H](CCCCN)NC(=O)[C@H](CCC(=O)O)NC(=O)[C@H](CCCNC(=N)N)NC(=O)CNC(=O)[C@H](CCC(=O)O)NC(=O)[C@H](CC(C)C)NC(C)=O)C(C)C)[C@@H](C)CC)[C@@H](C)O)C(N)=O)C(=O)O)C(=O)O)C(=O)O [compound 104] (Ac-LEGREKVRAQI[Aib][Aib]EG[Nle]STWS[Aib]RKK([γGlu-γGlu-AEEA-AEEA-γGlu-Stearoyl])-NH2) | 89 | 0.16
CCCCCCCCCCCCCCCCCC(=O)N[C@@H](CCC(=O)NCCOCCOCC(=O)NCCOCCOCC(=O)N[C@@H](CCC(=O)N[C@@H](CCC(=O)NCCCC[C@H](NC(=O)[C@H](CCCCN)NC(=O)[C@H](CCCCN)NC(=O)[C@H](CCCNC(=N)N)NC(=O)C(C)(C)NC(=O)[C@H](CO)NC(=O)[C@H](Cc1c[nH]c2ccccc12)NC(=O)[C@@H](NC(=O)[C@H](CO)NC(=O)[C@H](CCCC)NC(=O)CNC(=O)[C@H](CCC(=O)O)NC(=O)C(C)(C)NC(=O)C(C)(C)NC(=O)[C@@H](NC(=O)[C@H](CCC(N)=O)NC(=O)[C@H](C)NC(=O)[C@H](CCCNC(=N)N)NC(=O)[C@@H](NC(=O)[C@H](CCCCN)NC(=O)[C@H](CCC(=O)O)NC(=O)[C@H](CCCNC(=N)N)NC(=O)CNC(=O)[C@H](CCC(=O)O)NC(=O)[C@H](CC(C)C)NC(C)=O)C(C)C)[C@@H](C)CC)[C@@H](C)O)C(N)=O)C(=O)O)C(=O)O)C(=O)O [compound 105] (Ac-LEGREKVRAQI[Aib][Aib]EG[Nle]STWS[Aib]RKKK([γGlu-γGlu-AEEA-AEEA-γGlu-Stearoyl])-NH2) | 88 | 0.03
CCCCCCCCCCCCCCCCCC(=O)N[C@@H](CCC(=O)NCCOCCOCC(=O)NCCOCCOCC(=O)NCCOCCOCC(=O)N[C@@H](CCC(=O)N[C@@H](CCC(=O)NCCCC[C@H](NC(=O)[C@H](CCCCN)NC(=O)[C@H](CCCCN)NC(=O)[C@H](CCCNC(=N)N)NC(=O)C(C)(C)NC(=O)[C@H](CO)NC(=O)[C@H](Cc1c[nH]c2ccccc12)NC(=O)[C@@H](NC(=O)[C@H](CO)NC(=O)[C@H](CCCC)NC(=O)CNC(=O)[C@H](CCC(=O)O)NC(=O)C(C)(C)NC(=O)C(C)(C)NC(=O)[C@@H](NC(=O)[C@H](CCC(N)=O)NC(=O)[C@H](C)NC(=O)[C@H](CCCNC(=N)N)NC(=O)[C@@H](NC(=O)[C@H](CCCCN)NC(=O)[C@H](CCC(=O)O)NC(=O)[C@H](CCCNC(=N)N)NC(=O)CNC(=O)[C@H](CCC(=O)O)NC(=O)[C@H](CC(C)C)NC(C)=O)C(C)C)[C@@H](C)CC)[C@@H](C)O)C(N)=O)C(=O)O)C(=O)O)C(=O)O [compound 106] (Ac-LEGREKVRAQI[Aib][Aib]EG[Nle]STWS[Aib]RKKK([γGlu-γGlu-AEEA-AEEA-AEEA-γGlu-Stearoyl])-NH2) | 93 | 
